Results from patent US8791108B2, “Inhibitors of human immunodeficiency virus replication” (priority 2011, dated 2014).
Like-named read-outs stand apart in the source and are kept apart here.

System: recombinant NL-Rluc virus
Test: Inhibition of HIV replication (NL-RLuc luciferase reporter virus, MT-2 cells)
Assay type: cell-based
Details: Human immunodeficiency virus 1, MT2, 120 h

In the case of Cc1nc2cc(C(=O)N(C)Cc3cccnc3)nn2c(-c2cc(F)c3c(c2C)CCCO3)c1[C@H](OC(C)(C)C)C(=O)O [Example 97, (2S)-2-(tert-butoxy)-2-(7-(8-fluoro-5-methylchroman-6-yl)-5-methyl-2-(methyl(pyridin-3-ylmethyl)carbamoyl)pyrazolo[1,5-a]pyrimidin-6-yl)acetic acid], the EC50 (read-out: Activity) is reported as > 1 µM.
In the case of Cc1nc2cc(C(=O)N(C)CCC(C)C)nn2c(-c2cc(F)c3c(c2C)CCCO3)c1[C@H](OC(C)(C)C)C(=O)O [Example 98, (2S)-2-(tert-butoxy)-2-(7-(8-fluoro-5-methylchroman-6-yl)-2-(isopentyl(methyl)carbamoyl)-5-methylpyrazolo[1,5-a]pyrimidin-6-yl)acetic acid], the EC50 (read-out: Activity) is reported as < 0.1 µM.
With Cc1nc2cc(C(=O)NCc3cccc(-n4cccc4)c3)nn2c(-c2cc(F)c3c(c2C)CCCO3)c1[C@H](OC(C)(C)C)C(=O)O [Example 99, (2S)-2-(2-((3-(1H-pyrrol-1-yl)benzyl)carbamoyl)-7-(8-fluoro-5-methylchroman-6-yl)-5-methylpyrazolo[1,5-a]pyrimidin-6-yl)-2-(tert-butoxy)acetic acid] the EC50 (read-out: Activity) was < 0.1 µM.
Cc1nc2cc(C(=O)NCc3cccc(N4CCOCC4)c3)nn2c(-c2cc(F)c3c(c2C)CCCO3)c1[C@H](OC(C)(C)C)C(=O)O [Example 100] showed an EC50 (read-out: Activity) of 0.1 to 1 µM.
Cc1nc2cc(C(=O)NCC3CCOCC3)nn2c(-c2cc(F)c3c(c2C)CCCO3)c1[C@H](OC(C)(C)C)C(=O)O [Example 101, (2S)-2-(tert-butoxy)-2-(7-(8-fluoro-5-methylchroman-6-yl)-5-methyl-2-(((tetrahydro-2H-pyran-4-yl)methyl)carbamoyl)pyrazolo[1,5-a]pyrimidin-6-yl)acetic acid] showed an EC50 (read-out: Activity) of 0.1 to 1 µM.
With Cc1nc2cc(C(=O)NCCOC(C)C)nn2c(-c2cc(F)c3c(c2C)CCCO3)c1[C@H](OC(C)(C)C)C(=O)O [Example 102, (2S)-2-(tert-butoxy)-2-(7-(8-fluoro-5-methylchroman-6-yl)-2-((2-isopropoxyethyl)carbamoyl)-5-methylpyrazolo[1,5-a]pyrimidin-6-yl)acetic acid] the EC50 (read-out: Activity) was < 0.1 µM.
Cc1nc2cc(C(=O)NCCOC(C)(C)C)nn2c(-c2cc(F)c3c(c2C)CCCO3)c1[C@H](OC(C)(C)C)C(=O)O [Example 103, (2S)-2-(tert-butoxy)-2-(2-((2-(tert-butoxy)ethyl)carbamoyl)-7-(8-fluoro-5-methylchroman-6-yl)-5-methylpyrazolo[1,5-a]pyrimidin-6-yl)acetic acid] gave an EC50 (read-out: Activity) of 0.1 to 1 µM and an EC50 (read-out: EC50 μM) of 0.073 µM.
In the case of Cc1nc2cc(C(=O)NCc3ccccn3)nn2c(-c2cc(F)c3c(c2C)CCCO3)c1[C@H](OC(C)(C)C)C(=O)O [Example 104, (2S)-2-(tert-butoxy)-2-(7-(8-fluoro-5-methylchroman-6-yl)-5-methyl-2-((pyridin-2-ylmethyl)carbamoyl)pyrazolo[1,5-a]pyrimidin-6-yl)acetic acid], the EC50 (read-out: Activity) is reported as > 1 µM.
With Cc1nc2cc(C(=O)N3CCC(Cc4ccccc4)CC3)nn2c(-c2cc(F)c3c(c2C)CCCO3)c1[C@H](OC(C)(C)C)C(=O)O [Example 105, (2S)-2-(2-(4-benzylpiperidine-1-carbonyl)-7-(8-fluoro-5-methylchroman-6-yl)-5-methylpyrazolo[1,5-a]pyrimidin-6-yl)-2-(tert-butoxy)acetic acid] the EC50 (read-out: Activity) was < 0.1 µM.
In the case of Cc1nc2cc(C(=O)N3CCC(CCO)CC3)nn2c(-c2cc(F)c3c(c2C)CCCO3)c1[C@H](OC(C)(C)C)C(=O)O [Example 106, (2S)-2-(tert-butoxy)-2-(7-(8-fluoro-5-methylchroman-6-yl)-2-(4-(2-hydroxyethyl)piperidine-1-carbonyl)-5-methylpyrazolo[1,5-a]pyrimidin-6-yl)acetic acid], the EC50 (read-out: Activity) is reported as > 1 µM.
With Cc1nc2cc(C(=O)NCCCN3CCOCC3)nn2c(-c2cc(F)c3c(c2C)CCCO3)c1[C@H](OC(C)(C)C)C(=O)O [Example 107] the EC50 (read-out: Activity) was > 1 µM.
With Cc1nc2cc(C(=O)NCc3ccc(Cl)cc3Cl)nn2c(-c2cc(F)c3c(c2C)CCCO3)c1[C@H](OC(C)(C)C)C(=O)O [Example 108, (2S)-2-(tert-butoxy)-2-(2-((2,4-dichlorobenzyl)carbamoyl)-7-(8-fluoro-5-methylchroman-6-yl)-5-methylpyrazolo[1,5-a]pyrimidin-6-yl)acetic acid] the EC50 (read-out: Activity) was < 0.1 µM and the EC50 (read-out: EC50 μM) was 0.013 µM.
For Cc1nc2cc(C(=O)NCc3ccc(Cl)c(Cl)c3)nn2c(-c2cc(F)c3c(c2C)CCCO3)c1[C@H](OC(C)(C)C)C(=O)O [Example 109, (2S)-2-(tert-butoxy)-2-(2-((3,4-dichlorobenzyl)carbamoyl)-7-(8-fluoro-5-methylchroman-6-yl)-5-methylpyrazolo[1,5-a]pyrimidin-6-yl)acetic acid], the EC50 (read-out: Activity) was < 0.1 µM.
With COc1ccc(CNC(=O)c2cc3nc(C)c([C@H](OC(C)(C)C)C(=O)O)c(-c4cc(F)c5c(c4C)CCCO5)n3n2)cc1 [Example 110, (2S)-2-(tert-butoxy)-2-(7-(8-fluoro-5-methylchroman-6-yl)-2-((4-methoxybenzyl)carbamoyl)-5-methylpyrazolo[1,5-a]pyrimidin-6-yl)acetic acid] the EC50 (read-out: Activity) was < 0.1 µM.
Cc1nc2cc(C(=O)NCCc3ccccc3Cl)nn2c(-c2cc(F)c3c(c2C)CCCO3)c1[C@H](OC(C)(C)C)C(=O)O [Example 111, (2S)-2-(tert-butoxy)-2-(2-((2-chlorophenethyl)carbamoyl)-7-(8-fluoro-5-methylchroman-6-yl)-5-methylpyrazolo[1,5-a]pyrimidin-6-yl)acetic acid] was tested, and the EC50 (read-out: Activity) was < 0.1 µM.
With Cc1nc2cc(C(=O)NCCc3ccc(Cl)cc3)nn2c(-c2cc(F)c3c(c2C)CCCO3)c1[C@H](OC(C)(C)C)C(=O)O [Example 112, (2S)-2-(tert-butoxy)-2-(2-((4-chlorophenethyl)carbamoyl)-7-(8-fluoro-5-methylchroman-6-yl)-5-methylpyrazolo[1,5-a]pyrimidin-6-yl)acetic acid] the EC50 (read-out: Activity) was < 0.1 µM.
In the case of Cc1nc2cc(C(=O)N(Cc3ccccc3)C(C)C)nn2c(-c2cc(F)c3c(c2C)CCCO3)c1[C@H](OC(C)(C)C)C(=O)O [Example 113, (2S)-2-(2-(benzyl(isopropyl)carbamoyl)-7-(8-fluoro-5-methylchroman-6-yl)-5-methylpyrazolo[1,5-a]pyrimidin-6-yl)-2-(tert-butoxy)acetic acid], the EC50 (read-out: Activity) is reported as < 0.1 µM.
In the case of CCCCNC(=O)c1cc2nc(C)c([C@H](OC(C)(C)C)C(=O)O)c(-c3cc(F)c4c(c3C)CCCO4)n2n1 [Example 114, (2S)-2-(tert-butoxy)-2-(2-(butylcarbamoyl)-7-(8-fluoro-5-methylchroman-6-yl)-5-methylpyrazolo[1,5-a]pyrimidin-6-yl)acetic acid], the EC50 (read-out: Activity) is reported as < 0.1 µM.
For Cc1nc2cc(C(=O)N(C)Cc3ccc(Cl)c(Cl)c3)nn2c(-c2cc(F)c3c(c2C)CCCO3)c1[C@H](OC(C)(C)C)C(=O)O [Example 115, (2S)-2-(tert-butoxy)-2-(2-((3,4-dichlorobenzyl)(methyl)carbamoyl)-7-(8-fluoro-5-methylchroman-6-yl)-5-methylpyrazolo[1,5-a]pyrimidin-6-yl)acetic acid], the EC50 (read-out: Activity) was < 0.1 µM.
For Cc1nc2cc(C(=O)N3CCN(c4ccc(Cl)cc4)CC3)nn2c(-c2cc(F)c3c(c2C)CCCO3)c1[C@H](OC(C)(C)C)C(=O)O [Example 116, (2S)-2-(tert-butoxy)-2-(2-(4-(4-chlorophenyl)piperazine-1-carbonyl)-7-(8-fluoro-5-methylchroman-6-yl)-5-methylpyrazolo[1,5-a]pyrimidin-6-yl)acetic acid], the EC50 (read-out: Activity) was < 0.1 µM.
With Cc1nc2cc(C(=O)NCc3cccc(Cl)c3Cl)nn2c(-c2cc(F)c3c(c2C)CCCO3)c1[C@H](OC(C)(C)C)C(=O)O [Example 117, (2S)-2-(tert-butoxy)-2-(2-((2,3-dichlorobenzyl)carbamoyl)-7-(8-fluoro-5-methylchroman-6-yl)-5-methylpyrazolo[1,5-a]pyrimidin-6-yl)acetic acid] the EC50 (read-out: Activity) was < 0.1 µM.
Cc1nc2cc(C(=O)NCc3cc(Cl)cc(Cl)c3)nn2c(-c2cc(F)c3c(c2C)CCCO3)c1[C@H](OC(C)(C)C)C(=O)O [Example 118, (2S)-2-(tert-butoxy)-2-(2-((3,5-dichlorobenzyl)carbamoyl)-7-(8-fluoro-5-methylchroman-6-yl)-5-methylpyrazolo[1,5-a]pyrimidin-6-yl)acetic acid] was tested, and the EC50 (read-out: Activity) was < 0.1 µM.
In the case of Cc1nc2cc(C(=O)NCCc3nc4ccccc4s3)nn2c(-c2cc(F)c3c(c2C)CCCO3)c1[C@H](OC(C)(C)C)C(=O)O [Example 119, (2S)-2-(2-((2-(benzo[d]thiazol-2-yl)ethyl)carbamoyl)-7-(8-fluoro-5-methylchroman-6-yl)-5-methylpyrazolo[1,5-a]pyrimidin-6-yl)-2-(tert-butoxy)acetic acid], the EC50 (read-out: Activity) is reported as < 0.1 µM.
With Cc1nc2cc(C(=O)NCc3ccc(Cl)c(C(F)(F)F)c3)nn2c(-c2cc(F)c3c(c2C)CCCO3)c1[C@H](OC(C)(C)C)C(=O)O [Example 120, (2S)-2-(tert-butoxy)-2-(2-((4-chloro-3-(trifluoromethyl)benzyl)carbamoyl)-7-(8-fluoro-5-methylchroman-6-yl)-5-methylpyrazolo[1,5-a]pyrimidin-6-yl)acetic acid] the EC50 (read-out: Activity) was < 0.1 µM.
Cc1nc2cc(C(=O)NCc3ccc(C#N)cc3)nn2c(-c2cc(F)c3c(c2C)CCCO3)c1[C@H](OC(C)(C)C)C(=O)O [Example 121, (2S)-2-(tert-butoxy)-2-(2-((4-cyanobenzyl)carbamoyl)-7-(8-fluoro-5-methylchroman-6-yl)-5-methylpyrazolo[1,5-a]pyrimidin-6-yl)acetic acid] gave an EC50 (read-out: Activity) of 0.1 to 1 µM.
Cc1nc2cc(C(=O)NCc3nc4ccccc4s3)nn2c(-c2cc(F)c3c(c2C)CCCO3)c1[C@H](OC(C)(C)C)C(=O)O [Example 122, (2S)-2-(2-((benzo[d]thiazol-2-ylmethyl)carbamoyl)-7-(8-fluoro-5-methylchroman-6-yl)-5-methylpyrazolo[1,5-a]pyrimidin-6-yl)-2-(tert-butoxy)acetic acid] was tested, and the EC50 (read-out: Activity) was < 0.1 µM.
With Cc1nc2cc(C(=O)Nc3ccccc3)nn2c(-c2cc(F)c3c(c2C)CCCO3)c1[C@H](OC(C)(C)C)C(=O)O [Example 123, (2S)-2-(tert-butoxy)-2-(7-(8-fluoro-5-methylchroman-6-yl)-5-methyl-2-(phenylcarbamoyl)pyrazolo[1,5-a]pyrimidin-6-yl)acetic acid] the EC50 (read-out: Activity) was < 0.1 µM.
